Test results taken from patent US12440528B2, “Methods of treating ovarian cancer with hemp extract” (Ecofibre USA Inc., priority 2021, dated 2025).
Values after ≈ are worked out from the molar mass of the structure shown. Read-outs that look alike come from different tables or passages of the source. Each block holds one compound with its values, some of them ahead of it.

Key:
[1] = tested on: patient derived organoids (PD3D Cell Culture); assay: Calculated IC50 in PD3D cell culture of the patient derived organoids; assay type: cell-based, human
[2] = tested on: patient derived organoids; assay type: cell-based, human; conditions: for % Cell Death: organoid cell death
Text: A few of the above drug products, as well as additional drugs were tried for response to patient derived organoids.

[3] = tested on: chemosensitive ovarian cancer cells, derived from ascites cells; conditions: for viability: human, 14 days
[4] = tested on: chemoresistant ovarian cancer organoid
Protocol: To culture patient-derived organoids, 2-3×10^3 cells were plated in a pre-warmed (37° C.) 96-well plate in 10 mL of Matrigel (5%FBS AD+++ medium) per well. Individual patient cell organoid was cultured separately in different plates. Individual patient cells were handled separately to reduce the chance of cross-contamination. After mixing cells with Matrigel, 10 mL droplets were placed in wells and put in a 37° C. incubator with 5% CO2 for 30 minutes. Upon solidification of the Matrigel droplet with cells inside, the plate was placed inside a sterile hood and immersed the Matrigel droplet in 200 μL of organoid growth media. Cells were allowed to grow into mature organoids for 14 days. […] All treatments were done in triplicate, including vehicle-only controls (Dimethyl sulfoxide in culture medium at the highest concentration used for drug treatments).
To assess the cell viability in organoids after treatments, CellTiter-Glo® Luminescent Assay (Promega #G7572) was used. In brief, on day 14 of organoid culture, the matrigel droplet in each well with organoid inside was immersed in 100 μL of fresh growth media and 100 μL of CellTiter-Glo® reagent following the manufacturer's guideline. Blank wells containing only media and CellTiter Glo® reagent (no cells) were also included in each plate. Then the plates were put on a shaker @ 110 rpm at room temperature for 5 minutes to induce cell lysis, followed by 25 minutes at room temperature to stabilize the luminescent signal. Each step after adding the CellTiter Glo® reagent was performed in the dark. Luminescence was measured on a FLUOstar OPTIMA plate reader (BMG Lab technologies, Offenburg, Germany). Analysis was performed by normalizing treatment values to the vehicle control and plotting them as a percentage of the vehicle control. Drug IC50 values were determined by inhibitor vs normalized response-variable slope using least squares regression in Graphpad Prism 9.

[5] = tested on: patient derived endometrial cancer cells; assay type: in vivo, mice; conditions: paclitaxel alone 10 mg/kg (30.007 mg/m^2), 21 days
Protocol: Human patient cells from endometrial cancer were injected subcutaneously into female NOD/SCID gamma mice after resuspending in 100 μL solution. […] All treatment group mice were kept alive for up to 10 weeks after drug injection or until the tumor volume grows bigger than 2500 mm^3.

[6] = tested on: patient derived endometrial cancer organoids; assay: Carboplatin alone or with Cannabis extract, endometrial cancer organoids; assay type: cell-based, human
Text: To determine if this premise is conserved over different chemotherapeutic agents, Applicant repeated the tests replacing paclitaxel with carboplatin toward a related gynecological cancer cell, endometrial cancer cells. The surprising findings with paclitaxel were further confirmed by testing the impacts of carboplatin alone or carboplatin with a Cannabis extract.
Finally, with a dose of 250 μm/mL carboplatin, a 2.5× in the dose from the […] test, all of the combined therapeutics with carboplatin and Cannabis extract are below 10% viability, while the carboplatin alone remains at above 30%.

[7] = tested on: patient derived chemosensitive and chemoresistant ovarian cancer organoids; assay: Four Cannabis extracts on newly obtained ovarian cancer organoids, viability; assay type: cell-based, human
Protocol: Applicant then tested several different Cannabis extracts at varying concentrations on newly obtained patient derived chemosensitive and chemoresistant ovarian cancer organoids. […] Here, the BSHE continued to work at virtually the same level as prior tests, even though these organoids were generated from different patients than all prior tests. […] However, what remains constant is that at or about 10 μg/mL, virtually all patient derived organoid samples begin to or reach zero viability.

[8] = tested on: cancer organoid; assay: Effect of pH of the Cannabis extract on organoid viability; assay type: cell-based, human; conditions: pH 8
Protocol: A further interesting observation was determined by the impacts of pH on the efficacy of the Cannabis extract on organoid data. […] In each case, the control vehicle, buffered to the same pH was ineffective in killing the cells at all, and thus was not depicted. […] However, pH of 12, and certainly of 14 are highly corrosive, alkaline concentrations and are not suitable for therapeutic use.
Accordingly, when providing the Cannabis extract for therapeutic administration, […] yields an unexpected increase in efficacy.

[9] = chronic use, humans; cited from earlier work
[10] = cited from earlier work
[11] = biological target: P-glycoprotein (Homo sapiens, UniProt P08183); conditions: in vitro; cited from earlier work
Chain of P-glycoprotein (P08183 whole entry): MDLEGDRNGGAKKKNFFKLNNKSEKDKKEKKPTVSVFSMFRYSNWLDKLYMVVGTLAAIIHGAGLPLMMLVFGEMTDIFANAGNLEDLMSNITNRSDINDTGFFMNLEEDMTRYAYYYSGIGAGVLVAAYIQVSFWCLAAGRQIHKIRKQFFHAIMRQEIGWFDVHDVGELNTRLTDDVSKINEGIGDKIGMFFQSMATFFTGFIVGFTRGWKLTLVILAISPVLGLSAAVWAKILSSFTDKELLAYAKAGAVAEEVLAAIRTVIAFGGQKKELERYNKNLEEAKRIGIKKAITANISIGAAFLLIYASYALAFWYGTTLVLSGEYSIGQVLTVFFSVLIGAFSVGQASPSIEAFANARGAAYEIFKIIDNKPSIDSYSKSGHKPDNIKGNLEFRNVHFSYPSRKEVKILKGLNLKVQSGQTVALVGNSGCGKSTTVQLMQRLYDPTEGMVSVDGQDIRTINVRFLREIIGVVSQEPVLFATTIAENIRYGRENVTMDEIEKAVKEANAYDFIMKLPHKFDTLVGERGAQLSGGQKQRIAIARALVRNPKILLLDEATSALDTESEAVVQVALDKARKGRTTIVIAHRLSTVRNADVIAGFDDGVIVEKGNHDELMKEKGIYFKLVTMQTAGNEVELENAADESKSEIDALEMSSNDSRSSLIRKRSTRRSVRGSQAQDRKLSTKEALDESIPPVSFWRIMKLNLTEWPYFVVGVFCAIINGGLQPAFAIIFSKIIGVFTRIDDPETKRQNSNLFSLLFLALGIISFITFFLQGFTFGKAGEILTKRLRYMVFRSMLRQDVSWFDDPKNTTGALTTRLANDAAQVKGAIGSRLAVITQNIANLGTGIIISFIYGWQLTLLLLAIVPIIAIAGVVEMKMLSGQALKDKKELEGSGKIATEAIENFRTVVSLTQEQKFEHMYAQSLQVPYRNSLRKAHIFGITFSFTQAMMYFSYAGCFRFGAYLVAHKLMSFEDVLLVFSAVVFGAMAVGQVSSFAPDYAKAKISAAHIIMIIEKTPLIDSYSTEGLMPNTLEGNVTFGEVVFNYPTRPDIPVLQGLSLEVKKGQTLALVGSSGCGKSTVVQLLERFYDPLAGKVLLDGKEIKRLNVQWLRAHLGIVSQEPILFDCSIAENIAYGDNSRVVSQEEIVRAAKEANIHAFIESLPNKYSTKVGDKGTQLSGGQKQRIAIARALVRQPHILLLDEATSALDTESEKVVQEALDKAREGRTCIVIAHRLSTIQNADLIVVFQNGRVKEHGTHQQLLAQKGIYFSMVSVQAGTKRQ

[12] = cells without a printed unit; cited from earlier work

Compound: CCN(CC)CCNC(=O)c1c(C)[nH]c(/C=C2\C(=O)Nc3ccc(F)cc32)c1C [Sunitnib]
Calculated IC50 PD3D Cell Culture [1]: Not Reached

Calculated IC50 PD3D Cell Culture [1]: Not Reached
Compound: O=C(c1cc(Cc2n[nH]c(=O)c3ccccc23)ccc1F)N1CCN(C(=O)C2CC2)CC1 [Olaparib]

Compound: Nc1nc2[nH]cc(CCc3ccc(C(=O)N[C@@H](CCC(=O)O)C(=O)O)cc3)c2c(=O)[nH]1 [Pemetrexed]
Calculated IC50 PD3D Cell Culture [1]: Not Reached
% Cell Death [2]: No Response

Calculated IC50 PD3D Cell Culture [1]: Not Reached
Compound: O=C1O[C@H]([C@@H](O)CO)C(O)=C1O [Ascorbic Acid]

Calculated IC50 PD3D Cell Culture [1]: Not Reached
Compound: O=C(c1ccc(F)c(F)c1Nc1ccc(I)cc1F)N1CC(O)([C@@H]2CCCCN2)C1 [Cobimetinib]

Compound: O=C(O)C(Cl)Cl [Dichloracetate]
Calculated IC50 PD3D Cell Culture [1]: Not Reached

Calculated IC50 PD3D Cell Culture [1]: Not Reached
Compound: Nc1cccc2c1C(=O)N(C1CCC(=O)NC1=O)C2=O (stereo not shown) [Pomalidomide]

Compound: CC(=O)O[C@H]1C(=O)[C@@]2(C)[C@H]([C@H](OC(=O)c3ccccc3)[C@]3(O)C[C@H](OC(=O)[C@H](O)[C@@H](NC(=O)c4ccccc4)c4ccccc4)C(C)=C1C3(C)C)[C@]1(OC(C)=O)CO[C@@H]1C[C@@H]2O [Paclitaxel]
viability ([3]; 4 nm/mL): about 89%
viability ([3]; 20 nm/mL): about 57%
change in viability on increasing the dose by 5× ([3]; paclitaxel alone 4 to 20 nm/mL): 32%
overall kill rate ([3]; paclitaxel alone, highest dose (20 nm/mL)): less than 50%
viability ([4]; paclitaxel alone 4 nm/mL): 45%
change in viability on adding 5× more paclitaxel ([4]; paclitaxel alone 4 to 20 nm/mL): about 3%
viability ([4]; paclitaxel alone, 5× more (20 nm/mL)): 42%
% Cell Death [2]: 39%
effect on tumor volume / tumor growth [5]: ineffective in reducing tumor growth
effect on tumor volume / tumor growth ([5]; listed as paclitaxel): in essence ineffective

Compound: N.N.O=C([O-])C1(C(=O)[O-])CCC1.[Pt+2] [Carboplatin]
viability ([6]; carboplatin alone 50 μg/mL): about 50%
viability ([6]; carboplatin alone 100 μg/mL): about 50%
total drop in viability on increasing the dose by 5× ([6]; carboplatin alone 50 to 250 μm/mL): about 17%
% Cell Death [2]: 30%

Calculated IC50 PD3D Cell Culture [1]: Not Reached
Compound: CN(C)C(=N)N=C(N)N [Metformin]

Calculated IC50 PD3D Cell Culture [1]: Not Reached
Compound: CCN(CCO)CCCC(C)Nc1ccnc2cc(Cl)ccc12 (stereo not shown) [Hydroxychloroquine]

Compound: C=C(C)[C@@H]1CCC(C)=C[C@H]1c1c(O)cc(CCCCC)c(C(=O)O)c1O [CBDA, cannabidiolic acid]
viability ([7]; 50 μg/mL): nearing zero viability

Calculated IC50 PD3D Cell Culture [1]: Not Reached
Compound: N[C@@H](CCC(=O)N[C@@H](CS)C(=O)NCC(=O)O)C(=O)O [Glutathione]

Calculated IC50 PD3D Cell Culture [1]: Not Reached
Compound: C[C@@H](Oc1cc(-c2cnn(C3CCNCC3)c2)cnc1N)c1c(Cl)ccc(F)c1Cl [Crizotinib]

Compound: Bevacizumab
Calculated IC50 PD3D Cell Culture [1]: Not Reached

Calculated IC50 PD3D Cell Culture [1]: Not Reached
Compound: COc1cc2nccc(Oc3ccc(NC(=O)NC4CC4)c(Cl)c3)c2cc1C(N)=O [Lenvatinib]

Compound: C=C(C)[C@@H]1CCC(C)=C[C@H]1c1c(O)cc(CCCCC)cc1O [CBD isolate, cannabidiol]
viability at 15 µg/mL ([7]; Homo sapiens, 15 μg/mL, all samples): 0%
viability at 20 µg/mL ([7]; Homo sapiens, 20 μg/mL, all samples): 0%
killing of the organoids compared with native pH [8]: virtually no change
IC50 ([6]; Homo sapiens, extract alone): 3 µg/mL (≈ 9.54 µM)
viability ([6]; carboplatin 50 μm/mL with IC50 amount of extract): ~37%
improvement in viability on adding the extract ([6]; carboplatin 100 μm/mL plus IC50 amount of extract): 32%

Compound: COc1cc2c(cc1O)CCN[C@]21CS[C@@H]2c3c(OC(C)=O)c(C)c4c(c3[C@H](COC1=O)N1[C@@H]2[C@H]2c3c(cc(C)c(OC)c3O)C[C@@H]([C@@H]1O)N2C)OCO4 [Trabectedine]
% Cell Death [2]: 32%

Compound: C=C(C)[C@@H]1CCC(C)=C[C@H]1c1c(O)cc(CCCCC)cc1O [CBD, cannabidiol]
doses established as well tolerated [9]: up to 1,500 mg/day
peak plasma concentrations of CBD ([10]; coadministration of rifampicin (a CYP3A4 inducer)): significantly reduced
peak plasma drug concentrations ([10]; coadministration of the CYP3A4 inhibitor ketoconazole): nearly doubled
time of maximum plasma concentration ([10]; oral-mucosal or sublingual delivery): 1.6 h
time of maximum plasma concentration, delayed ([10]; orally delivered, some individuals): up to 6 hours
time of maximum plasma concentration ([10]; orally delivered): 2.5 to 5 h
response of the patient's organoid ([2]; organoid of the chemoresistant endometrial cancer patient): significant response
inhibition of P-glycoprotein-mediated drug transport [11]: significantly inhibits

Compound: CCCCCOC(=O)Nc1nc(=O)n([C@@H]2O[C@H](C)[C@@H](O)[C@H]2O)cc1F [Capecitabine (5-FU), Capecitabine]
Calculated IC50 PD3D Cell Culture [1]: Not Reached
Cmax [12]: 2220 nM
